Laboratory results published in patent publication US20030129222A1, “Liposomal imexon” (priority 2000, published 2003).
pIC50: −log10 of the molar value.

Tested on: WiDr colon, res
Experiment: Cytotoxicity in tumor cell culture, SRB assay
Assay type: cell-based
Settings: multidrug-resistant; read-out: IC50 against human mouse tumors, WiDr colon res
Source text: (§1) Relative potencies of the N-substituted 2-cyanoaziridine-1-carboxamides in a panel of tumor cell cultures are compared in Table 3. This panel includes the following lines of human tumor cells: sensitive and imexon-resistant lines of multiple myeloma (Matsuoka et al., 1967); ovarian carcinoma resistant to standard drugs (Hamilton et al., 1984); melanoma with a slow growth fraction (Girard et al., 1973); breast carcinoma including sensitive, doxorubicin-resistant (P-glycoprotein-positive) (Taylor et al., 1991), and mitoxantrone-resistant (P-glycoprotein-negative) (Futscher et al., 1994) lines; sensitive and multidrug-resistant colon carcinoma (Noguchi et al., 1979; Dalton et al., 1988); and multidrug-resistant lung carcinoma (P-glycoprotein-negative) (Girard et al., 1973). It also has sensitive (Goldin et al., 1961) and multidrug-resistant (P-glycoprotein-positive) (Salmon and Hersh, 1994) murine L1210 leukemia cells.
Compound `CC(C)(C)NC(=O)N1CC1C#N` (stereo not drawn) [Compound 9, 2-Cyanoaziridine-1-(N-t-butyl) carboxamide] has a pIC50 of under 3.52.
In the case of `CCCCNC(=O)N1CC1C#N` (stereo not drawn) [Compound 8, 2-Cyanoaziridine-1-(N-butyl) carboxamide], the pIC50 was 4.74.
Compound `CCNC(=O)N1CC1C#N` (stereo not drawn) [Compound 7, 2-Cyanoaziridine-1-(N-ethyl) carboxamide] has a pIC50 of 5.15.

Tested on: WiDr colon, Sens
Experiment: Cytotoxicity in tumor cell culture, SRB assay
Assay type: cell-based
Settings: read-out: IC50 against human mouse tumors, WiDr colon Sens
Source text: as §1
Compound `CC(C)(C)NC(=O)N1CC1C#N` (stereo not drawn) [Compound 9, 2-Cyanoaziridine-1-(N-t-butyl) carboxamide] has a pIC50 of 3.74.
Work on `CCCCNC(=O)N1CC1C#N` (stereo not drawn) [Compound 8, 2-Cyanoaziridine-1-(N-butyl) carboxamide] yielded a pIC50 of 4.85.
`CCNC(=O)N1CC1C#N` (stereo not drawn) [Compound 7, 2-Cyanoaziridine-1-(N-ethyl) carboxamide] gave a pIC50 of 5.40.

Tested on: 8226 myeloma, Res (imexon-resistant)
Experiment: Cytotoxicity in tumor cell culture, SRB assay
Assay type: cell-based
Settings: line made resistant to imexon; read-out: IC50 against human mouse tumors, 8226 myeloma Res
Source text: as §1
Work on `CC(C)(C)NC(=O)N1CC1C#N` (stereo not drawn) [Compound 9, 2-Cyanoaziridine-1-(N-t-butyl) carboxamide] yielded a pIC50 of 3.67.
`CCCCNC(=O)N1CC1C#N` (stereo not drawn) [Compound 8, 2-Cyanoaziridine-1-(N-butyl) carboxamide] showed a pIC50 of 4.77.
Work on `CCNC(=O)N1CC1C#N` (stereo not drawn) [Compound 7, 2-Cyanoaziridine-1-(N-ethyl) carboxamide] yielded a pIC50 of 4.59.

Tested on: L1210 leukemia, Mdr
Experiment: Cytotoxicity in tumor cell culture, MTT assay
Assay type: cell-based, murine
Settings: MTT assay, multidrug-resistant; read-out: IC50 against human mouse tumors, L1210 leukemia Mdr
Source text: as §1
With `CC(C)(C)NC(=O)N1CC1C#N` (stereo not drawn) [Compound 9, 2-Cyanoaziridine-1-(N-t-butyl) carboxamide] the pIC50 was 3.34.
`CCCCNC(=O)N1CC1C#N` (stereo not drawn) [Compound 8, 2-Cyanoaziridine-1-(N-butyl) carboxamide] showed a pIC50 of 4.92.
`CCNC(=O)N1CC1C#N` (stereo not drawn) [Compound 7, 2-Cyanoaziridine-1-(N-ethyl) carboxamide] showed a pIC50 of 4.85.

Tested on: L1210 leukemia, Sens
Experiment: Cytotoxicity in tumor cell culture, MTT assay
Assay type: cell-based, murine
Settings: MTT assay; read-out: IC50 against human mouse tumors, L1210 leukemia Sens
Source text: as §1
With `CC(C)(C)NC(=O)N1CC1C#N` (stereo not drawn) [Compound 9, 2-Cyanoaziridine-1-(N-t-butyl) carboxamide] the pIC50 was 3.88.
Work on `CCCCNC(=O)N1CC1C#N` (stereo not drawn) [Compound 8, 2-Cyanoaziridine-1-(N-butyl) carboxamide] yielded a pIC50 of 4.92.
For `CCNC(=O)N1CC1C#N` (stereo not drawn) [Compound 7, 2-Cyanoaziridine-1-(N-ethyl) carboxamide], the pIC50 was 4.85.

Tested on: MCF7 breast, Dox (doxorubicin-resistant)
Experiment: Cytotoxicity in tumor cell culture, SRB assay
Assay type: cell-based, human
Settings: doxorubicin-resistant; read-out: IC50 against human mouse tumors, MCF7 breast Dox
Source text: as §1
Work on `CC(C)(C)NC(=O)N1CC1C#N` (stereo not drawn) [Compound 9, 2-Cyanoaziridine-1-(N-t-butyl) carboxamide] yielded a pIC50 of 3.72.
`CCCCNC(=O)N1CC1C#N` (stereo not drawn) [Compound 8, 2-Cyanoaziridine-1-(N-butyl) carboxamide] gave a pIC50 of 5.17.
For `CCNC(=O)N1CC1C#N` (stereo not drawn) [Compound 7, 2-Cyanoaziridine-1-(N-ethyl) carboxamide], the pIC50 was 4.70.

Tested on: MCF7 breast, mitox (mitoxantrone-resistant)
Experiment: Cytotoxicity in tumor cell culture, SRB assay
Assay type: cell-based, human
Settings: mitoxantrone-resistant; read-out: IC50 against human mouse tumors, MCF7 breast mitox
Source text: as §1
Work on `CC(C)(C)NC(=O)N1CC1C#N` (stereo not drawn) [Compound 9, 2-Cyanoaziridine-1-(N-t-butyl) carboxamide] yielded a pIC50 of 3.92.
`CCCCNC(=O)N1CC1C#N` (stereo not drawn) [Compound 8, 2-Cyanoaziridine-1-(N-butyl) carboxamide] showed a pIC50 of under 4.92.
In the case of `CCNC(=O)N1CC1C#N` (stereo not drawn) [Compound 7, 2-Cyanoaziridine-1-(N-ethyl) carboxamide], the pIC50 was 5.00.

Tested on: A-549 lung
Experiment: Cytotoxicity in tumor cell culture, SRB assay
Assay type: cell-based, human
Settings: read-out: IC50 against human mouse tumors, A-549 lung
Source text: as §1
`CC(C)(C)NC(=O)N1CC1C#N` (stereo not drawn) [Compound 9, 2-Cyanoaziridine-1-(N-t-butyl) carboxamide] showed a pIC50 of 3.74.
With `CCCCNC(=O)N1CC1C#N` (stereo not drawn) [Compound 8, 2-Cyanoaziridine-1-(N-butyl) carboxamide] the pIC50 was 4.74.
Compound `CCNC(=O)N1CC1C#N` (stereo not drawn) [Compound 7, 2-Cyanoaziridine-1-(N-ethyl) carboxamide] has a pIC50 of 4.74.

Tested on: OVCAR3 ovarian
Experiment: Cytotoxicity in tumor cell culture, SRB assay
Assay type: cell-based, human
Settings: read-out: IC50 against human mouse tumors, OVCAR3 ovarian
Source text: as §1
Work on `CC(C)(C)NC(=O)N1CC1C#N` (stereo not drawn) [Compound 9, 2-Cyanoaziridine-1-(N-t-butyl) carboxamide] yielded a pIC50 of 3.73.
Compound `CCCCNC(=O)N1CC1C#N` (stereo not drawn) [Compound 8, 2-Cyanoaziridine-1-(N-butyl) carboxamide] has a pIC50 of 4.92.
For `CCNC(=O)N1CC1C#N` (stereo not drawn) [Compound 7, 2-Cyanoaziridine-1-(N-ethyl) carboxamide], the pIC50 was 4.85.

Tested on: A375 melan
Experiment: Cytotoxicity in tumor cell culture, SRB assay
Assay type: cell-based, human
Settings: read-out: IC50 against human mouse tumors, A375 melan
Source text: as §1
`CC(C)(C)NC(=O)N1CC1C#N` (stereo not drawn) [Compound 9, 2-Cyanoaziridine-1-(N-t-butyl) carboxamide] showed a pIC50 of 3.38.
Compound `CCCCNC(=O)N1CC1C#N` (stereo not drawn) [Compound 8, 2-Cyanoaziridine-1-(N-butyl) carboxamide] has a pIC50 of 4.82.
With `CCNC(=O)N1CC1C#N` (stereo not drawn) [Compound 7, 2-Cyanoaziridine-1-(N-ethyl) carboxamide] the pIC50 was 4.44.

Tested on: MCF7 breast, Sens
Experiment: Cytotoxicity in tumor cell culture, SRB assay
Assay type: cell-based, human
Settings: read-out: IC50 against human mouse tumors, MCF7 breast Sens
Source text: as §1
In the case of `CC(C)(C)NC(=O)N1CC1C#N` (stereo not drawn) [Compound 9, 2-Cyanoaziridine-1-(N-t-butyl) carboxamide], the pIC50 was under 3.52.
In the case of `CCCCNC(=O)N1CC1C#N` (stereo not drawn) [Compound 8, 2-Cyanoaziridine-1-(N-butyl) carboxamide], the pIC50 was under 4.92.
For `CCNC(=O)N1CC1C#N` (stereo not drawn) [Compound 7, 2-Cyanoaziridine-1-(N-ethyl) carboxamide], the pIC50 was 4.54.

Tested on: 8226 myeloma, Sens (drug-sensitive)
Experiment: Cytotoxicity in tumor cell culture, SRB assay
Assay type: cell-based, human
Settings: against sensitive myeloma
Source text: as §1
For `CC(C)(C)NC(=O)N1CC1C#N` (stereo not drawn) [Compound 9, 2-Cyanoaziridine-1-(N-t-butyl) carboxamide], the “Log(1/C)” value was 3.92.
For `CCCCNC(=O)N1CC1C#N` (stereo not drawn) [Compound 8, 2-Cyanoaziridine-1-(N-butyl) carboxamide], the “Log(1/C)” value was 4.77.
With `CCNC(=O)N1CC1C#N` (stereo not drawn) [Compound 7, 2-Cyanoaziridine-1-(N-ethyl) carboxamide] the “Log(1/C)” value was 4.66.

Same assay, conditions: against sensitive myeloma; values repeated from Table 3 (μM there); read-out: IC50
Work on `CC(C)(C)NC(=O)N1CC1C#N` (stereo not drawn) [Compound 9, 2-Cyanoaziridine-1-(N-t-butyl) carboxamide] yielded an IC50 of 120 µM.
In the case of `CCCCNC(=O)N1CC1C#N` (stereo not drawn) [Compound 8, 2-Cyanoaziridine-1-(N-butyl) carboxamide], the IC50 was 17 µM.
`CCNC(=O)N1CC1C#N` (stereo not drawn) [Compound 7, 2-Cyanoaziridine-1-(N-ethyl) carboxamide] showed an IC50 of 22 µM.

Same assay, conditions: drug-sensitive line; read-out: IC50 against human mouse tumors, 8226 myeloma Sens
In the case of `CC(C)(C)NC(=O)N1CC1C#N` (stereo not drawn) [Compound 9, 2-Cyanoaziridine-1-(N-t-butyl) carboxamide], the pIC50 was 3.92.
For `CCCCNC(=O)N1CC1C#N` (stereo not drawn) [Compound 8, 2-Cyanoaziridine-1-(N-butyl) carboxamide], the pIC50 was 4.77.
Compound `CCNC(=O)N1CC1C#N` (stereo not drawn) [Compound 7, 2-Cyanoaziridine-1-(N-ethyl) carboxamide] has a pIC50 of 4.66.

Tested on: not given
Experiment: not given
Settings: substituent constant, from Hansch and Leo or calculated using Clog P software; cited from earlier work
In the case of `CC(C)(C)NC(=O)N1CC1C#N` (stereo not drawn) [Compound 9, 2-Cyanoaziridine-1-(N-t-butyl) carboxamide], the π is listed as 1.98.
For `CCCCNC(=O)N1CC1C#N` (stereo not drawn) [Compound 8, 2-Cyanoaziridine-1-(N-butyl) carboxamide], the π is given as 2.00.
For `CCNC(=O)N1CC1C#N` (stereo not drawn) [Compound 7, 2-Cyanoaziridine-1-(N-ethyl) carboxamide], the π is listed as 1.02.
